Results on 5 compounds are retold here after patent US5166163A, “3-(1H-indazol-3-yl)-4-pyridinamines” (Hoechst-Roussel Pharmaceuticals Incorporated, priority 1991, dated 1992).

Assay [1] has as its system phenyl-para-quinone writhing. Description: phenyl-para-quinone writhing assay in mice (analgesia). Format: in vivo. The conditions noted are these: s.c. The source says: The compounds of the present invention are useful as analgesic agents. […] Exptl. Biol. Med., 95,729 (1957)].
In assay [2] the test system is ear edema induced by topical application of TPA (phorbol 12-myristate acetate). Description: TPA-Induced Ear Edema (TPAEE). It counts as in vivo, Female Swiss Webster mice. The conditions noted are these: mice. The protocol:
The purpose of this assay was to determine the ability of a topically-applied compound to prevent ear edema induced by topical application of TPA (phorbol 12-myristate acetate). Female Swiss Webster mice topically received TPA (10 μg/ear) on the right ear and vehicle on the left ear. The test compound (10 μg/ear) was applied to both ears. After five hours, the animals were sacrificed and an ear punch (4 mm) was taken from each ear. The difference in right and left ear punch weights for each animal was determined to assess activity. […] See Young, J. M. et al., J. Invest. Dermatol., 80 (1983), pp. 48-52.

Counter-ions that a name gives are not always drawn.

On to `NN=C(c1cnccc1N)c1ccccc1F` [(4-Amino-3-pyridinyl)-2-fluorophenylmethanone hydrazone dihydrochloride], for which the “% Inhibition of Writhing” value in assay [1] (20 mg/kg of body wt.) was determined as 74%.
Turning to `CC(C)(C)C(=O)Nc1ccncc1-c1n[nH]c2ccccc12` [N-[3-(1H-Indazol-3-yl)-4-pyridinyl]-2,2-dimethylpropanamide], the “TPAEE (difference in right and left ear punch weights)” value in assay [2] (10 μg/ear, both ears, five hours, TPA 10 μg/ear on right ear) was -31%.
For the compound `CCC(=O)O[C@](Cc1ccccc1)(c1ccccc1)[C@H](C)CN(C)C` [Propoxyphene, reference compound], the “% Inhibition of Writhing” value in assay [1] (3.9 mg/kg of body wt., standard) came out at 50%.
As to `CC(C)(C)C(=O)Nc1ccncc1C(=NN)c1ccccc1F` [[4-(2,2-Dimethylpropionamido)-3-pyridinyl]-2-fluorophenylmethanonehydrazonemaleate], in assay [1] (20 mg/kg of body wt.), the “% Inhibition of Writhing” value amounted to 60%.
In the case of `C[C@]12CCC(=O)C=C1CC[C@@H]1[C@@H]2[C@@H](O)C[C@@]2(C)[C@H]1CC[C@]2(O)C(=O)CO` [hydrocortisone, reference compound], the ED50 in assay [2] (standard, TPA-induced ear edema) was 47 μg/ear.
